Measurements reported in article PMC3541233 (PLoS ONE, 2013).

Target: T1, AmPDH (pyranose dehydrogenase, PDH) (Macropsalliota meleagris, UniProt Q3L245)
T1 construct: gene pdh1; for crystals deglycosylated with alpha-mannosidase (577 residues)
Assay: anaerobic reduction of enzyme FAD, absorption spectra
Format: biochemical
Details: 20 µM oxidized enzyme, 20 µM substrate, 100 mM NaH2PO4 pH 7.5, 25 °C; C2 accessible

T1 sequence (Q3L245 26-602): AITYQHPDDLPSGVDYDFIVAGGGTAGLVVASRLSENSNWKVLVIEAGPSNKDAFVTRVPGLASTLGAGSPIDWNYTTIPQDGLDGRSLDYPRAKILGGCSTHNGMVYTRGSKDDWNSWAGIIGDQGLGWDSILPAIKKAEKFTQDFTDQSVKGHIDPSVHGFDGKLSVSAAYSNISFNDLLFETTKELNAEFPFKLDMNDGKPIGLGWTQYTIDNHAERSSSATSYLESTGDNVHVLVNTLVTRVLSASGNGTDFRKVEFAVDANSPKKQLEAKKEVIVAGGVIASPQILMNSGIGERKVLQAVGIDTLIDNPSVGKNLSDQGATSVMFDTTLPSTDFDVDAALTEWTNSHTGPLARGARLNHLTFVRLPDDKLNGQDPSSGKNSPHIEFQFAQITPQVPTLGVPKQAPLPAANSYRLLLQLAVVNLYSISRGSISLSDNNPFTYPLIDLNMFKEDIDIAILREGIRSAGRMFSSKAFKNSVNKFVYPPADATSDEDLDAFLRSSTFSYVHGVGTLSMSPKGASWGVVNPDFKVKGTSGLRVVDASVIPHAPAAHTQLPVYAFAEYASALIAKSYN

OC[C@H]1OC(O)[C@H](O)[C@@H](F)[C@@H]1O (stereo partly shown)
anaerobic reduction of enzyme FAD, absorption spectra: showing that AmPDH was rapidly reduced, presumably by a hydride moiety at glucose C2
